Test results published in PubChem BioAssay (NCI).
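96-well plates; 48 h exposure; 5 concentrations. Endpoints by linear interpolation between flanking doses. Not reached: highest tested concentration assigned. TGI: total growth inhibition.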

Legend:
Experiment in all cases: NCI anticancer screen, dose series, 48 h
RPMI-8226 leukemia = tested on: RPMI-8226 leukemia
UACC-62 melanoma = tested on: UACC-62 melanoma
K-562 leukemia = tested on: K-562 leukemia
DLD-1 colon = tested on: DLD-1 colon
A549 NSCLC = tested on: A549 NSCLC
SN12C renal = tested on: SN12C renal
HL-60(TB) leukemia = tested on: HL-60(TB) leukemia
SNB-75 CNS = tested on: SNB-75 CNS
NCI-H522 lung = tested on: NCI-H522 lung
MOLT-4 leukemia = tested on: MOLT-4 leukemia
SW-620 colon = tested on: SW-620 colon
HCT-15 colon = tested on: HCT-15 colon
SNB-19 CNS = tested on: SNB-19 CNS
KM20L2 colon = tested on: KM20L2 colon
SK-OV-3 ovarian = tested on: SK-OV-3 ovarian
TK-10 renal = tested on: TK-10 renal
SK-MEL-2 melanoma = tested on: SK-MEL-2 melanoma
UACC-257 melanoma = tested on: UACC-257 melanoma
SK-MEL-28 melanoma = tested on: SK-MEL-28 melanoma
M19-MEL melanoma = tested on: M19-MEL melanoma
MALME-3M melanoma = tested on: MALME-3M melanoma
HCT-116 colon = tested on: HCT-116 colon
NCI-H226 lung = tested on: NCI-H226 lung
RXF-631 renal = tested on: RXF-631 renal
LXFL 529 NSCLC = tested on: LXFL 529 NSCLC
DMS 273 small cell lung = tested on: DMS 273 small cell lung
UO-31 renal = tested on: UO-31 renal
M14 melanoma = tested on: M14 melanoma
HT29 colon = tested on: HT29 colon
SF-295 CNS = tested on: SF-295 CNS
SF-268 CNS = tested on: SF-268 CNS
CAKI-1 renal = tested on: CAKI-1 renal
XF 498 CNS = tested on: XF 498 CNS
HOP-92 NSCLC = tested on: HOP-92 NSCLC
SF-539 CNS = tested on: SF-539 CNS
KM12 colon = tested on: KM12 colon
SR leukemia = tested on: SR leukemia
CCRF-CEM leukemia = tested on: CCRF-CEM leukemia
OVCAR-3 ovarian = tested on: OVCAR-3 ovarian
SNB-78 CNS = tested on: SNB-78 CNS
IGROV1 ovarian = tested on: IGROV1 ovarian
NCI-H23 lung = tested on: NCI-H23 lung
U251 CNS = tested on: U251 CNS
LOX IMVI melanoma = tested on: LOX IMVI melanoma
ACHN renal = tested on: ACHN renal
786-0 renal = tested on: 786-0 renal
EKVX NSCLC = tested on: EKVX NSCLC
SK-MEL-5 melanoma = tested on: SK-MEL-5 melanoma
COLO 205 colon = tested on: COLO 205 colon
NCI-H460 lung = tested on: NCI-H460 lung
A498 renal = tested on: A498 renal
HOP-62 NSCLC = tested on: HOP-62 NSCLC
RXF 393 renal = tested on: RXF 393 renal
HCC-2998 colon = tested on: HCC-2998 colon
OVCAR-4 ovarian = tested on: OVCAR-4 ovarian
OVCAR-5 ovarian = tested on: OVCAR-5 ovarian
OVCAR-8 ovarian = tested on: OVCAR-8 ovarian
DMS 114 small cell lung = tested on: DMS 114 small cell lung

Cc1ccc(S(=O)(=O)CC(=O)CC(=O)C(=O)Nc2cccc(C(F)(F)F)c2)cc1 was tested, and the TGI (RPMI-8226 leukemia) was over 100 µM, the TGI (UACC-62 melanoma) was over 100 µM and the TGI (K-562 leukemia) was over 100 µM. It also gave a TGI (DLD-1 colon) of over 100 µM, a TGI (A549 NSCLC) of over 100 µM and a TGI (SN12C renal) of over 100 µM. The TGI (HL-60(TB) leukemia) was over 100 µM, the TGI (SNB-75 CNS) was over 100 µM and the TGI (NCI-H522 lung) was over 100 µM. It also gave a TGI (MOLT-4 leukemia) of over 100 µM, a TGI (SW-620 colon) of over 100 µM and a TGI (HCT-15 colon) of over 100 µM. The TGI (SNB-19 CNS) was over 100 µM, the TGI (KM20L2 colon) was over 100 µM and the TGI (SK-OV-3 ovarian) was over 100 µM. The TGI (TK-10 renal) was over 100 µM, the TGI (SK-MEL-2 melanoma) was over 100 µM and the TGI (UACC-257 melanoma) was over 100 µM. It also gave a TGI (SK-MEL-28 melanoma) of over 100 µM, a TGI (M19-MEL melanoma) of over 100 µM and a TGI (MALME-3M melanoma) of over 100 µM. It also gave a TGI (HCT-116 colon) of over 100 µM, a TGI (NCI-H226 lung) of over 100 µM and a TGI (RXF-631 renal) of over 100 µM. It also gave a TGI (LXFL 529 NSCLC) of over 100 µM, a TGI (DMS 273 small cell lung) of over 100 µM and a TGI (UO-31 renal) of over 100 µM. For the same compound, the TGI (M14 melanoma) was over 100 µM, the TGI (HT29 colon) was over 100 µM and the TGI (SF-295 CNS) was over 100 µM. For the same compound, the TGI (SF-268 CNS) was over 100 µM, the TGI (CAKI-1 renal) was over 100 µM and the TGI (XF 498 CNS) was over 100 µM. It also gave a TGI (HOP-92 NSCLC) of over 100 µM, a TGI (SF-539 CNS) of over 100 µM and a TGI (KM12 colon) of over 100 µM. For the same compound, the TGI (SR leukemia) was over 100 µM, the TGI (CCRF-CEM leukemia) was over 100 µM and the TGI (OVCAR-3 ovarian) was over 100 µM. For the same compound, the TGI (SNB-78 CNS) was over 100 µM, the TGI (IGROV1 ovarian) was over 100 µM and the TGI (NCI-H23 lung) was over 100 µM. The TGI (U251 CNS) was over 100 µM, the TGI (LOX IMVI melanoma) was over 100 µM and the TGI (ACHN renal) was over 100 µM. It also gave a TGI (786-0 renal) of over 100 µM, a TGI (EKVX NSCLC) of over 100 µM and a TGI (SK-MEL-5 melanoma) of over 100 µM.
With O=C(COc1ccc2c(=O)cc(-c3ccc(Cl)cc3)oc2c1)N1CCN(c2ccccc2)CC1 the TGI (RPMI-8226 leukemia) was over 100 µM, the TGI (UACC-62 melanoma) was over 100 µM and the TGI (K-562 leukemia) was over 100 µM. It also gave a TGI (DLD-1 colon) of over 100 µM, a TGI (A549 NSCLC) of over 100 µM and a TGI (SN12C renal) of over 100 µM. For the same compound, the TGI (COLO 205 colon) was over 100 µM, the TGI (NCI-H460 lung) was over 100 µM and the TGI (HL-60(TB) leukemia) was over 100 µM. It also gave a TGI (SNB-75 CNS) of over 100 µM, a TGI (A498 renal) of over 100 µM and a TGI (HOP-62 NSCLC) of over 100 µM. The TGI (MOLT-4 leukemia) was over 100 µM, the TGI (SW-620 colon) was over 100 µM and the TGI (HCT-15 colon) was over 100 µM. For the same compound, the TGI (SNB-19 CNS) was over 100 µM, the TGI (KM20L2 colon) was over 100 µM and the TGI (SK-OV-3 ovarian) was over 100 µM. The TGI (TK-10 renal) was over 100 µM, the TGI (SK-MEL-2 melanoma) was over 100 µM and the TGI (RXF 393 renal) was over 100 µM. The TGI (UACC-257 melanoma) was over 100 µM, the TGI (SK-MEL-28 melanoma) was over 100 µM and the TGI (HCC-2998 colon) was over 100 µM. The TGI (M19-MEL melanoma) was over 100 µM, the TGI (MALME-3M melanoma) was over 100 µM and the TGI (HCT-116 colon) was over 100 µM. For the same compound, the TGI (NCI-H226 lung) was over 100 µM, the TGI (RXF-631 renal) was over 100 µM and the TGI (LXFL 529 NSCLC) was over 100 µM. It also gave a TGI (UO-31 renal) of over 100 µM, a TGI (M14 melanoma) of over 100 µM and a TGI (HT29 colon) of over 100 µM. For the same compound, the TGI (SF-295 CNS) was over 100 µM, the TGI (SF-268 CNS) was over 100 µM and the TGI (CAKI-1 renal) was over 100 µM. The TGI (XF 498 CNS) was over 100 µM, the TGI (HOP-92 NSCLC) was over 100 µM and the TGI (SF-539 CNS) was over 100 µM. The TGI (KM12 colon) was over 100 µM, the TGI (SR leukemia) was over 100 µM and the TGI (OVCAR-4 ovarian) was over 100 µM. The TGI (OVCAR-5 ovarian) was over 100 µM, the TGI (OVCAR-3 ovarian) was over 100 µM and the TGI (SNB-78 CNS) was over 100 µM. For the same compound, the TGI (IGROV1 ovarian) was over 100 µM, the TGI (NCI-H23 lung) was over 100 µM and the TGI (U251 CNS) was over 100 µM. For the same compound, the TGI (OVCAR-8 ovarian) was over 100 µM, the TGI (LOX IMVI melanoma) was over 100 µM and the TGI (ACHN renal) was over 100 µM. It also gave a TGI (786-0 renal) of over 100 µM, a TGI (EKVX NSCLC) of over 100 µM and a TGI (SK-MEL-5 melanoma) of over 100 µM.
Cc1[nH]c2ccccc2c1-c1n[nH]c(=O)c2ccccc12 showed a TGI (RPMI-8226 leukemia) of 74.7 µM, a TGI (UACC-62 melanoma) of over 100 µM and a TGI (K-562 leukemia) of over 100 µM. For the same compound, the TGI (DLD-1 colon) was over 100 µM, the TGI (A549 NSCLC) was over 100 µM and the TGI (NCI-H460 lung) was over 100 µM. For the same compound, the TGI (HL-60(TB) leukemia) was 55.6 µM, the TGI (SNB-75 CNS) was 57.9 µM and the TGI (A498 renal) was 63.5 µM. The TGI (DMS 114 small cell lung) was 58.7 µM, the TGI (HOP-62 NSCLC) was 50.3 µM and the TGI (MOLT-4 leukemia) was 81.3 µM. The TGI (SW-620 colon) was over 100 µM, the TGI (HCT-15 colon) was over 100 µM and the TGI (KM20L2 colon) was 92.6 µM. For the same compound, the TGI (SK-OV-3 ovarian) was 72.1 µM, the TGI (TK-10 renal) was over 100 µM and the TGI (SK-MEL-2 melanoma) was over 100 µM. It also gave a TGI (RXF 393 renal) of 37.1 µM, a TGI (UACC-257 melanoma) of over 100 µM and a TGI (SK-MEL-28 melanoma) of over 100 µM. For the same compound, the TGI (HCC-2998 colon) was over 100 µM, the TGI (M19-MEL melanoma) was over 100 µM and the TGI (MALME-3M melanoma) was 74.4 µM. It also gave a TGI (HCT-116 colon) of 35.8 µM, a TGI (NCI-H226 lung) of 85.3 µM and a TGI (RXF-631 renal) of 66.1 µM. It also gave a TGI (LXFL 529 NSCLC) of over 100 µM, a TGI (DMS 273 small cell lung) of 72.9 µM and a TGI (UO-31 renal) of 61.9 µM. The TGI (M14 melanoma) was over 100 µM, the TGI (HT29 colon) was over 100 µM and the TGI (SF-295 CNS) was 91.8 µM. It also gave a TGI (CAKI-1 renal) of over 100 µM, a TGI (XF 498 CNS) of 76.2 µM and a TGI (SF-539 CNS) of over 100 µM. For the same compound, the TGI (KM12 colon) was over 100 µM, the TGI (CCRF-CEM leukemia) was over 100 µM and the TGI (OVCAR-4 ovarian) was over 100 µM. It also gave a TGI (OVCAR-5 ovarian) of over 100 µM, a TGI (OVCAR-3 ovarian) of 67.3 µM and a TGI (SNB-78 CNS) of over 100 µM. The TGI (IGROV1 ovarian) was over 100 µM, the TGI (NCI-H23 lung) was over 100 µM and the TGI (U251 CNS) was over 100 µM. It also gave a TGI (OVCAR-8 ovarian) of over 100 µM, a TGI (ACHN renal) of over 100 µM and a TGI (786-0 renal) of over 100 µM. For the same compound, the TGI (EKVX NSCLC) was over 100 µM and the TGI (SK-MEL-5 melanoma) was 41 µM.
